Results: article PMC10452033, “The Importance of the “Time Factor” for the Evaluation of Inhibition Mechanisms: The Case of Selected HDAC6 Inhibitors” (Biology, 2023)
Values belong to the compound of their own block, whether it stands above or below them.

Columns and labels:
HDAC6 = conditions: cited from earlier work
Human HDAC6 (GST-HDAC6) [1] = target: T1, Human HDAC6 (GST-HDAC6) (Homo sapiens, UniProt Q9UBN7); assay: Jump-dilution assay, kinetics of relief of inhibition of HDAC6
T1 sequence (Q9UBN7 1-1215): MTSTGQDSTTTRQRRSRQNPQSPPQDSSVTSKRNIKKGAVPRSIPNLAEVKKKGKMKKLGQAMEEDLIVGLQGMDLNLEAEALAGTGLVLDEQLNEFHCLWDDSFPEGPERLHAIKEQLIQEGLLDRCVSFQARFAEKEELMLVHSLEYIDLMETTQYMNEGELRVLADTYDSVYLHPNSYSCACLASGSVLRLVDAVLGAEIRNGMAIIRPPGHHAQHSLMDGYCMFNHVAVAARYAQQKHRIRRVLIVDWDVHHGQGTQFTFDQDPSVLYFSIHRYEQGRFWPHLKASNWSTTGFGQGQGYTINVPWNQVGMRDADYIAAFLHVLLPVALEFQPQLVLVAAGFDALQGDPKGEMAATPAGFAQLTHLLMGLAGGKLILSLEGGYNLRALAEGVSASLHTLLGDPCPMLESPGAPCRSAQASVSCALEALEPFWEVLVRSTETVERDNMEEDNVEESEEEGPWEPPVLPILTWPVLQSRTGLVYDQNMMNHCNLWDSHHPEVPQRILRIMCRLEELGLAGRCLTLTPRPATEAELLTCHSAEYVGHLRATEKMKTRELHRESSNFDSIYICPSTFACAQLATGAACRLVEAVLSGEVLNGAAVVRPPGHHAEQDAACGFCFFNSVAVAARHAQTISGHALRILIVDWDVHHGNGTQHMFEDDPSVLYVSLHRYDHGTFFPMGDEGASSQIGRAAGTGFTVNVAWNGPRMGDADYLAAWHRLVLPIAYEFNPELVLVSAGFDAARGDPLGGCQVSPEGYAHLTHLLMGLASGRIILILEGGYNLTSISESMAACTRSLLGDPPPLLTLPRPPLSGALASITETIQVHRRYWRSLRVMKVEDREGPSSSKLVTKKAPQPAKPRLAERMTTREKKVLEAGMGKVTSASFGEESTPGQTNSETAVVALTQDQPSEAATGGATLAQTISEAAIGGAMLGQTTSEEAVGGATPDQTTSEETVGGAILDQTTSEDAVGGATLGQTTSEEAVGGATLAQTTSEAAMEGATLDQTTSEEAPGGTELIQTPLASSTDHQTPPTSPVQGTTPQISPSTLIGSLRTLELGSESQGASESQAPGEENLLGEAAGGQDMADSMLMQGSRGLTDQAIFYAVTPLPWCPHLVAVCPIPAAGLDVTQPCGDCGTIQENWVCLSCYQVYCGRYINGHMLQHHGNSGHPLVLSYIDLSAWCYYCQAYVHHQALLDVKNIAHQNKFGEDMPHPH
Excerpt: (§1) Human HDAC6, as a chimeric form in which the full-length protein is preceded by glutathione S-transferase (GST), was purchased from BPS Bioscience.
From the slope of the lines and the intercepts (insets of Figure 1 E,G), one can calculate the apparent rate constants for formation of the inhibited complex and for its dissociation through Equation (4) (Table 1). Through Equation (5), the apparent dissociation constant of the EI complex could be calculated (Table 1). From jump-dilution assays of the type shown in Figure 1, right panels, the koff was independently calculated through Equation (2) (or from the linear part of the curves) in the presence of saturating substrate, to minimize the possibility that the inhibitor rebinds to the enzyme after dissociation (Table 1).
Panels (A,C,E,G): kinetics of onset of inhibition. […] Aliquots of reactions were stopped at different times with TSA and subsequently developed, as described in detailed methods in Supplementary information. […] The data were fitted to Equation (2) to determine the steady-state velocity values (vs), which were used to calculate IC50 and kobs (Table 1). The initial velocity was set to the value measured in the absence of the inhibitor. […] They were used to determine the mechanism of slow-binding inhibition, and estimates of kon, koff and Ki (Table 1). […]

Human HDAC6 (GST-HDAC6) [2] = target: T1, Human HDAC6 (GST-HDAC6); assay: Kinetics of onset of inhibition of HDAC6, progress curves with Fluor de Lys Green substrate; conditions: for slope factor (s): slope factor of the IC50 fit, Equation (1)
Excerpt: as §1
The activity assay described here is based on the use of the commercially available Fluor de Lys Green substrate, which contains an acetylated lysine residue covalently bound through an amide bond to the amino group of a fluorophore, likely a rhodamine derivative. Deacetylation of the lysine residue makes the amide bond susceptible to trypsin cleavage with release of the fluorophore that is accompanied by fluorescence increase.
For activity assays in the absence of inhibitors, measured fluorescence values at different reaction times, after subtraction of the background fluorescence, were analyzed to determine the initial velocity of reactions from the initial linear part of the curve. […] If the onset and relief of inhibition were sufficiently fast, compared to the time of the assay, the steady-state velocity could be calculated from the linear part of the progress curve at long reaction times. […] Thus, we could calculate apparent values of kon (the second-order rate constant for formation of the enzyme–inhibitor complex) and koff (the first-order rate constant for dissociation of the enzyme–inhibitor complex) for a simple E + I ↔ EI equilibrium from Equation (4). From the observed rates of complex formation and dissociation, an apparent dissociation constant of the complex could be calculated (Equation (5); [31, 40]). kobs = kon^app [I] + koff (4) Ki^app = koff/kon^app (5)
The steady-state velocities were used to estimate the IC50 and cooperativity (if any) from the “slope factor” (s) by calculating the percentage residual activity as a function of inhibitor concentration, and fitting to Equation (1).
From jump-dilution assays of the type shown in Figure 1, right panels, the koff was independently calculated through Equation (2) (or from the linear part of the curves) in the presence of saturating substrate, to minimize the possibility that the inhibitor rebinds to the enzyme after dissociation (Table 1).
Aliquots of reactions were stopped at different times with TSA and subsequently developed, as described in detailed methods in Supplementary information. […] The data were fitted to Equation (2) to determine the steady-state velocity values (vs), which were used to calculate IC50 and kobs (Table 1). The initial velocity was set to the value measured in the absence of the inhibitor.

Human HDAC6 = target: T2, Human HDAC6 (Homo sapiens, UniProt Q9UBN7); assay: Yonetani-Theorell analysis of the binding of ITF2357 and ITF3756 to HDAC6; format: biochemical; conditions: with respect to the Fluor de Lys substrate; parallel lines in Yonetani-Theorell plots
T2 sequence (Q9UBN7 1-1215): T1 sequence (Q9UBN7 1-1215)
Excerpt: Enzymes. Human HDAC6, as a chimeric form in which the full-length protein is preceded by glutathione S-transferase (GST), was purchased from BPS Bioscience.
In this analysis, the substrate concentration (S) is maintained constant at a sub-saturating concentration, and the concentration of one inhibitor (I) is varied in the presence of different levels of the second (J). The reaction velocity at a given I and J concentration pair (vij) depends on the corresponding inhibition constants (KI and KJ) and an interaction factor γ (Equation (7)). If I and J bind to the same site on the enzyme in a mutually exclusive way, the plots of reciprocal velocity as a function of the varied inhibitor concentration, at different constant levels of the second, yield a set of parallel lines because the interaction factor γ→∞ (Equation (8)). In this case, the common slope (Equation (9)) depends on the velocity of the uninhibited reaction (vo) and the dissociation constant of the varying inhibitor (KI). The dependence of the intercepts on the concentration of the inhibitor kept constant at different levels (J) should be linear (Equation (10)). The initial velocity of the inhibited enzyme, and the inhibition constants KI and KJ can be calculated. […]
The time-course of reactions was monitored to calculate the steady-state velocity from the linear part of the curve. […]

[3] = tested on: HDAC6 with respect to all other isoforms, including HDAC10; set-up: method as in PMID 36528061; conditions: cited from earlier work
[4] = tested on: zebrafish HDAC6 CD2 (zHDAC6-CD2); set-up: method as in PMID 36528061; conditions: cited from earlier work

Compound: NNC(=O)c1ccc(Cn2cc(-c3ccc(NC4=NCCN4)cc3)nn2)cc1 [Compound 1b]
IC50 (HDAC6): 329 nM

Compound: O=C(NNC(=O)C(F)F)c1ccc(Cn2cc(-c3ccc(NC4=NCCN4)cc3)nn2)cc1 [Compound 1a]
IC50 (HDAC6): 1580 nM

Now from value to compound, other results behind:

apparent koff (Human HDAC6 (GST-HDAC6) [1]; pre-incubated with 10 nM TSA for 90 min, 100-fold dilution, 25 µM Fluor-de-Lys Green): 0.032 ± 0.008 min‐1
kinetic behaviour of onset and relief of inhibition (Human HDAC6 (GST-HDAC6) [2]; progress curves and jump-dilution assays): Slow binding
Compound: [R-(E,E)]-7-[4-(Dimethylamino)phenyl]-N-hydroxy-4,6-dimethyl-7-oxo-2,4-heptadienamide [TSA, reference compound]

mechanism of inhibition (Human HDAC6): competitive inhibitor
time after start of reaction at which steady-state velocity was reached (Human HDAC6 (GST-HDAC6) [2]; reaction started by addition of the enzyme): approximately 15 min
slope factor (s) (Human HDAC6 (GST-HDAC6) [2]): 1.0 ± 0.06
Compound: CCN(CC)Cc1ccc2cc(COC(=O)Nc3ccc(C(=O)NO)cc3)ccc2c1 [ITF2357, reference compound]

koff (Human HDAC6 (GST-HDAC6) [1]): 0.000108 s⁻¹
Ki (Human HDAC6 (GST-HDAC6) [2]): 8.9 ± 0.23 nM
koff (Human HDAC6 (GST-HDAC6) [2]): 8.33e-05 s⁻¹
kon (Human HDAC6 (GST-HDAC6) [2]; read-out: kon^app): 9330 M⁻¹ s⁻¹
slope factor (s) (Human HDAC6 (GST-HDAC6) [2]): 0.96 ± 0.04
Compound: FC(F)c1nnc(-c2ccc(Cn3cc(-c4ccc(NC5=NCCN5)cc4)nn3)cc2)o1 [Compound 1]
selectivity for HDAC6 with respect to all other isoforms [3]: greater than 10^4
observed rate constant for the release from the enzyme in jump-dilution assays [4]: (9.6 ± 1.1) × 10^−3 min^−1
rate constant for formation of the acyl-hydrazide from Compound 1 [4]: (6.04 ± 0.22)×10^−3 min^−1
IC50 (HDAC6): 7.7 nM
